Reference: article PMC6895203, “Conformational pathway provides unique sensitivity to a synaptic mGluR” (Nature Communications, 2019)
Several values for one entry are separate records, joined by “and”; a condition that tells them apart may be missing. Equal values may be shown once.

How the values were obtained:
SNAP-mGluR2(F756D) = target: T1, SNAP-mGluR2(F756D) (Rattus norvegicus, UniProt P31421, F756D); assay: Whole-cell patch clamp of GIRK1 current, SNAP-mGluR2(F756D) expressed alone; assay type: cell-based; settings: SNAP-mGluR2-F756D alone; 1 mM Glu; single cells
T1 construct: HA (N); expressed in transfected cells; host or cells: HEK293 / HEK293T
T1 sequence (P31421 19-872 F756D): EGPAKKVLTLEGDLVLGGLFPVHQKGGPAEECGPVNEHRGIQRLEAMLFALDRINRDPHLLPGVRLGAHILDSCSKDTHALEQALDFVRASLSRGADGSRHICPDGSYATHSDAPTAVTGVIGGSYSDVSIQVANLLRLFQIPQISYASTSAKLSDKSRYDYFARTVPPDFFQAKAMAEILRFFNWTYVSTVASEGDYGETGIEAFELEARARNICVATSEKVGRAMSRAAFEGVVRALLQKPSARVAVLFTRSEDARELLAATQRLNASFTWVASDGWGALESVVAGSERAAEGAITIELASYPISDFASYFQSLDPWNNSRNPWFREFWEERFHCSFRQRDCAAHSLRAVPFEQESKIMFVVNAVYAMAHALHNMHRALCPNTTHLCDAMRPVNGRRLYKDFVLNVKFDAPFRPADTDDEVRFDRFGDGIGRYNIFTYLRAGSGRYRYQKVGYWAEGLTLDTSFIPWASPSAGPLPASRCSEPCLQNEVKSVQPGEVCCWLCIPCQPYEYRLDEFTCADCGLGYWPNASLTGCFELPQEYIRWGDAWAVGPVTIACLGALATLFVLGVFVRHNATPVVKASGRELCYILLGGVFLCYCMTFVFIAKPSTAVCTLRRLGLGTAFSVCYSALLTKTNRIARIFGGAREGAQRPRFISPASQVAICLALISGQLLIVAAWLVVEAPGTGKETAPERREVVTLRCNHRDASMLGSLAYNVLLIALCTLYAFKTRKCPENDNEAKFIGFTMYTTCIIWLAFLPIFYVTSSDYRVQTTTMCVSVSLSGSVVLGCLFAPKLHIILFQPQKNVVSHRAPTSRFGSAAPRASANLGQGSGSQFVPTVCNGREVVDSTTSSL
Text: (§1) We explored this further by examining trans-activation, whereby binding of ligand to one subunit activates G-protein interaction in the partner subunit[46],[47]. To specifically activate only the mGluR2 subunit of the mGluR2/7 heterodimer, we selectively attached a photoswitched tethered ligand to mGluR2.
(§2) Illumination was applied to the entire field of view using either a Polychrome V monochromator (TILL Photonics) through a 20× objective, or a Lambda DG4 high-speed wavelength switcher (Sutter Instruments) with 380 nm and 500 nm filters through a 40× objective. pClamp software was used for both data acquisition and control of illumination.

[1] = target: T2, CLIP-mGluR2/SNAP-mGluR7 heterodimer (mGluR2/7) (Rattus norvegicus, UniProt P31421+P35400); assay: Live-cell ensemble FRET of mGluR2/7 heterodimer in HEK293 cells; assay type: cell-based; design: Flag (N); HA (N); made in house; host or cells: HEK293T; settings: for normalized FRET response (Figure 3c titration), AVG: right block
T2 sequence (P31421 19-872): as the sequence (P31421 19-872 F756D) above, with D738F counted along it
T2 sequence (P35400 35-915): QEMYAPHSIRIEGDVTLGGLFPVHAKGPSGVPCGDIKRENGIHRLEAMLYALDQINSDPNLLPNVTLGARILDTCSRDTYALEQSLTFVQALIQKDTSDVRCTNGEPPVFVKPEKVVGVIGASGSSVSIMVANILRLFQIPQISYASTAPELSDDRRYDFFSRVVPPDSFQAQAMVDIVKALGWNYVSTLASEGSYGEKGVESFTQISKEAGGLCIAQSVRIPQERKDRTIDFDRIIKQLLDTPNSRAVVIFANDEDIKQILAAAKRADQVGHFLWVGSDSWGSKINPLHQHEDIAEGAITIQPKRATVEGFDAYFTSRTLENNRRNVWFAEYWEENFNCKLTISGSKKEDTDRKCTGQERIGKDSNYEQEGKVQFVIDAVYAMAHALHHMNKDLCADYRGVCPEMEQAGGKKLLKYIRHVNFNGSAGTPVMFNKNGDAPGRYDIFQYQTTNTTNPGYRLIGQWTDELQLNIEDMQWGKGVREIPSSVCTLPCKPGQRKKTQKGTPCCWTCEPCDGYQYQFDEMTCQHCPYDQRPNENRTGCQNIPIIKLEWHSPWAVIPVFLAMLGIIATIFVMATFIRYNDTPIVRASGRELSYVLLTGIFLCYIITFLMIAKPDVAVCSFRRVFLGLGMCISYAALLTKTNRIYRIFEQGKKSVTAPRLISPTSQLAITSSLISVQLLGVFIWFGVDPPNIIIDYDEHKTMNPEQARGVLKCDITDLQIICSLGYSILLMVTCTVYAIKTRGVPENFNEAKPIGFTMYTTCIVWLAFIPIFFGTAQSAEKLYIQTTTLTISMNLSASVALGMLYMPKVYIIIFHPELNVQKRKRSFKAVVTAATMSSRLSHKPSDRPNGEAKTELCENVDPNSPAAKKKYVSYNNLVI
Procedure: The co-expression of SNAP-mGluR7 and CLIP-mGluR2 is expected to yield three dimer stoichiometries: the homodimeric SNAP-mGluR7/SNAP-mGluR7; the homodimeric CLIP-mGluR2/CLIP-mGluR2, and the heterodimeric SNAP-mGluR7/CLIP-mGluR2. Of these, only the heterodimer combines the donor and acceptor and produces a FRET signal.
(§3) After labeling, cells were mounted on an upright, scanning confocal microscope (Zeiss LSM 780) and imaged with a 20X objective. […] Clusters of cells were analyzed together and FRET was calculated as FRET = (IA)/(ID + IA), in which ID is the fluorescence donor intensity and IA is the fluorescence acceptor intensity. […] Fitting of dose–response curves was performed using Prism (Graphpad). […] Drugs were delivered with a gravity-driven perfusion system.

[2] = target: T3, SNAP-mGluR2(F756D)/mGluR7 heterodimer (Rattus norvegicus, UniProt P31421+P35400, F756D); assay: Whole-cell patch clamp of GIRK1 current, trans-activation in SNAP-mGluR2(F756D)/mGluR7; assay type: cell-based; settings: for glutamate GIRK concentration-response relation compared to mGluR2/2: patch clamp
T3 construct: HA (N); expressed in transfected cells; host or cells: HEK293 / HEK293T
T3 sequence (P31421 19-872 F756D): as the sequence (P31421 19-872 F756D) above
T3 sequence (P35400 35-915): as the sequence (P35400 35-915) above
Text: as §1, with “mGluR2. […] SNAP-mGluR2(F756D) was co-expressed with wild-type mGluR7 along with the GIRK1 channel.” for “mGluR2.”
as §2

[3] = target: T2, CLIP-mGluR2/SNAP-mGluR7 heterodimer (mGluR2/7); assay: smFRET on isolated CLIP-mGluR2/SNAP-mGluR7 heterodimers
SNAP-mGluR4/4 homodimer = target: T4, SNAP-mGluR4/4 homodimer (Rattus norvegicus, UniProt P31423); assay: Live-cell ensemble FRET of SNAP-mGluR4/4 homodimer in HEK293 cells; assay type: cell-based
T4 construct: HA (N); expressed in transfected cells; host or cells: HEK293 / HEK293T
T4 sequence (P31423 33-912): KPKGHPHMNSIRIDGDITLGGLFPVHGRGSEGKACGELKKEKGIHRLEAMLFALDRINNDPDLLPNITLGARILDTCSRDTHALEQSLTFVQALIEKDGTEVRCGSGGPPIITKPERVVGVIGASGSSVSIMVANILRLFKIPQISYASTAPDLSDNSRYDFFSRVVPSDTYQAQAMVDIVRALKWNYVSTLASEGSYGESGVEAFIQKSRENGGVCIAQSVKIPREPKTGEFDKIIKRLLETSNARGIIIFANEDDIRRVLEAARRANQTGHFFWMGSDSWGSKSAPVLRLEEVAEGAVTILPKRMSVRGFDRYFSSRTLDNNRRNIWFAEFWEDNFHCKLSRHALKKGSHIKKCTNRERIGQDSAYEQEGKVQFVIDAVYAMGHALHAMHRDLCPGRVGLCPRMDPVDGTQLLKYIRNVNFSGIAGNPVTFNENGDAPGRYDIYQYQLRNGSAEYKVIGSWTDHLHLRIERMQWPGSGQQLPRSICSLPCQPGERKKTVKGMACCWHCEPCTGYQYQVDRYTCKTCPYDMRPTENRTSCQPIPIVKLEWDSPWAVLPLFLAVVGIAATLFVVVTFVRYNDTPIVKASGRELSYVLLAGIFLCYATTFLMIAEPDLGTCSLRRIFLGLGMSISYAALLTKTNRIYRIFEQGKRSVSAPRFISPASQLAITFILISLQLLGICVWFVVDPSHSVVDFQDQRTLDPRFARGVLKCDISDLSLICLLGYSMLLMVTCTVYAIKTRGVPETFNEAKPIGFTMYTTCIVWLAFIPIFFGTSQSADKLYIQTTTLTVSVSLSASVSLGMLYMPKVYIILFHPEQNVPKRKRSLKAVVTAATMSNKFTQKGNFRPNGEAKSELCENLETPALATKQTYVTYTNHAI
Procedure: as §3

[4] = target: SNAP-mGluR2/SNAP-mGluR2 (mGluR2/2) (Rattus norvegicus, UniProt P31421); assay: Whole-cell patch clamp of GIRK1 current, mGluR2/2 homodimer; settings: mGluR2/2+GIRK; for titration values, single replicates 1-3: individual replicates; for titration values, AVG (normalized response): Supplemental Figure 1a
SNAP-mGluR2/SNAP-mGluR2 (mGluR2/2), sequence (P31421 19-872): as the sequence (P31421 19-872 F756D) above, with D738F counted along it
Procedure: HEK293T cells were cultured in DMEM with 5% FBS on poly-L- lysine-coated glass coverslips. […] DNA plasmids were transfected into cells using lipofectamine 2000 (Thermo Fisher). For electrophysiology experiments, cells were transfected with wild-type-mGluR2 or wild-type- mGluR7 or SNAP-mGluR2(F756D), GIRK1-F137S, and yellow fluorescent protein (YFP) (as a transfection marker) at a 7:7:1 ratio with 0.7 mg plasmid per well for receptor and channel.
Whole-cell patch clamp recordings from single isolated cells were performed 24–48 h after transfection, in a high potassium extra-cellular solution containing (in mM): 120 KCl, 29 NaCl, 1 MgCl2, 2 CaCl2 and 10 HEPES, pH 7.4. Cells were voltage clamped to −60 mV using an Axopatch 200B amplifier (Axon Instruments) and membrane currents were recorded. Glass pipettes of resistance between 3 and 8 MΩ were filled with intracellular solution containing (in mM): 140 KCl, 10 HEPES, 3 Na2ATP, 0.2 Na2GTP, 5 EGTA and 3 MgCl2, pH 7.4. Data were acquired with a 2 kHz acquisition rate and low-pass filtered with a 4-pole Bessel filter at 1 kHz. Data acquisition and analysis were performed using pCLAMP 10 software (Axon Instruments).

[5] = target: T5, SNAP-mGluR7(N74K) homodimer (Rattus norvegicus, UniProt P35400, N74K); assay: smFRET on SNAP-mGluR7(N74K) homodimers; assay type: biochemical; settings: 10 mM glutamate; wild-type at >10X higher glutamate
T5 construct: HA (N); made in house; host or cells: HEK293T
T5 sequence (P35400 35-915 N74K): as the sequence (P35400 35-915) above, with N40K counted along it
Text: (100 ms time resolution).

[6] = target: SNAP-mGluR7/SNAP-mGluR7 homodimer (mGluR7/7) (Rattus norvegicus, UniProt P35400); assay: Live-cell ensemble FRET of SNAP-mGluR7/7 homodimer in HEK293T cells; assay type: cell-based; design: HA (N); made in house; host or cells: HEK293T
SNAP-mGluR7/SNAP-mGluR7 homodimer (mGluR7/7), sequence (P35400 35-915): as the sequence (P35400 35-915) above
Procedure: as §3

N[C@@H](CCC(=O)O)C(=O)O [glutamate]
Current, 1 mM Glu (SNAP-mGluR2(F756D)): 0
major high affinity component, share of total ΔFRET ([1]; live-cell ensemble FRET): ~ 80%
minor lower affinity component, share of total ΔFRET ([1]; live-cell ensemble FRET): ~ 20%
normalized FRET response (Figure 3c titration), AVG ([1]; Glu 1uM, normalized to 10 mM): 0.05708
normalized FRET response (Figure 3c titration), AVG ([1]; Glu 2uM): 0.1039
normalized FRET response (Figure 3c titration), AVG ([1]; Glu 5uM): 0.2535
normalized FRET response (Figure 3c titration), AVG ([1]; Glu 10uM): 0.4051
normalized FRET response (Figure 3c titration), AVG ([1]; Glu 20uM): 0.6543
normalized FRET response (Figure 3c titration), AVG ([1]; Glu 50uM): 0.6971
normalized FRET response (Figure 3c titration), AVG ([1]; Glu 100uM): 0.7929
normalized FRET response (Figure 3c titration), AVG ([1]; Glu 200uM): 0.7943
normalized FRET response (Figure 3c titration), AVG ([1]; Glu 500uM): 0.8921
normalized FRET response (Figure 3c titration), AVG ([1]; Glu 1mM): 0.9417
normalized FRET response (Figure 3c titration), AVG ([1]; Glu 2mM): 1.009
normalized FRET response (Figure 3c titration), AVG ([1]; Glu 10mM (normalization point)): 1
Norm. (100 nM Glu), average ([2]; 100 nM Glu normalised to 1 mM Glu, average of cells): 0.158
Norm. (1 uM Glu), average ([2]; 1 uM Glu normalised to 1 mM Glu, average of cells): 0.4678
Norm. (1 uM Glu) ([2]; 1 uM Glu normalised to 1 mM Glu, single cells, listed as Glu): 0.3693 and 0.5844 and 0.4728 and 0.4449
Norm. (10 uM), average ([2]; 10 uM Glu normalised to 1 mM Glu, average of cells): 0.7782
Norm. (10 uM) ([2]; 10 uM Glu normalised to 1 mM Glu, single cells, listed as Glu): 0.7837 and 0.9099 and 0.6409
Norm. (100 uM), average ([2]; 100 uM Glu normalised to 1 mM Glu, average of cells): 0.9915
Norm. (100 uM) ([2]; 100 uM Glu normalised to 1 mM Glu, single cells, listed as Glu): 1.055 and 0.9085 and 1.011
glutamate GIRK concentration-response relation compared to mGluR2/2 [2]: shifted to the left
glutamate GIRK concentration-response relation compared to mGluR2/2 ([2]; listed as Glutamate): left-shifted
occupancy of the low FRET active state ([3]; 10 μM glutamate): ~ 50%
smFRET level ([3]; 10 mM glutamate): ~ 0.2
minor low affinity component, share ([3]; smFRET): ~ 20%
occupancy of low FRET activated conformation at top of biphasic relation ([3]; smFRET): full occupancy
major high affinity component (single-subunit liganding), share of maximal activation ([3]; smFRET, top of first component at 1 mM glutamate): ~ 80%
titration values, single replicates 1-3 (SNAP-mGluR4/4 homodimer; Glu 1e-8, individual replicates): 0
titration values, AVG (normalized response) (SNAP-mGluR4/4 homodimer; Glu 1e-7): 0.0203
titration values, single replicates 1-3 (SNAP-mGluR4/4 homodimer; Glu 1e-7, individual replicates, listed as Glu): 0.03656 and 0.01694 and 0.007398
titration values, AVG (normalized response) (SNAP-mGluR4/4 homodimer; Glu 1e-6): 0.0444
titration values, single replicates 1-3 (SNAP-mGluR4/4 homodimer; Glu 1e-6, individual replicates, listed as Glu): 0.05482 and 0.03845 and 0.03991
titration values, AVG (normalized response) (SNAP-mGluR4/4 homodimer; Glu 1e-5): 0.4393
titration values, single replicates 1-3 (SNAP-mGluR4/4 homodimer; Glu 1e-5, individual replicates, listed as Glu): 0.4343 and 0.4025 and 0.481
titration values, AVG (normalized response) (SNAP-mGluR4/4 homodimer; Glu 0.0001): 0.8959
titration values, single replicates 1-3 (SNAP-mGluR4/4 homodimer; Glu 0.0001, individual replicates, listed as Glu): 0.9016 and 0.8805 and 0.9055
titration values, AVG (normalized response) (SNAP-mGluR4/4 homodimer; Glu 0.001 (normalisation point)): 1
titration values, single replicates 1-3 (SNAP-mGluR4/4 homodimer; Glu 0.001 (normalisation point), individual replicates): 1
titration values, single replicates 1-3 ([4]; Glu 1e-6, listed as Glu): 0.1214 and 0.05844 and 0.0437
titration values, AVG (normalized response) ([4]; Glu 1e-5): 0.4456
titration values, single replicates 1-3 ([4]; Glu 1e-5, listed as Glu): 0.4624 and 0.4291 and 0.4452
titration values, AVG (normalized response) ([4]; Glu 0.0001): 0.9358
titration values, single replicates 1-3 ([4]; Glu 0.0001, listed as Glu): 0.9459 and 0.9335 and 0.9281
titration values, AVG (normalized response) ([4]; Glu 0.001): 1.022
titration values, single replicates 1-3 ([4]; Glu 0.001, listed as Glu): 1.05 and 1.012 and 1.0027
titration values, AVG (normalized response) ([4]; Glu 0.01 (normalisation point)): 1
titration values, single replicates 1-3 ([4]; Glu 0.01 (normalisation point)): 1
occupancy of activated low FRET state vs wild-type mGluR7 [5]: greater occupancy of the activated low FRET (~0.2) state
FRET decrease ([6]; 10 mM glutamate, live HEK293T cells): barely measurable FRET decrease
fractional change in FRET (Figure 1c), Average ([6]; 10 mM glutamate, live cells): 0.002
glutamate concentration required for a measurable response ([6]; live-cell ensemble FRET): 10 mM
FRET change ([6]; up to 1 mM glutamate, live HEK293T cells): no detectable FRET change
